# Where a name gives a salt, the structure may show the parent alone. Read-outs that look alike come from different tables or passages of the source.
# Legend:
# Test in all cases: MIC, standard broth dilution method in microtitre
# Type in all cases: cell-based
# [1] = tested on: M. catarrhalis ATCC 23246; settings: Moraxella catarrhalis, ATCC23246
# Experimental: (§1) Using a standard broth dilution method in microtitre, compounds were tested for antibacterial activity. The compounds in the above examples gave minimum inhibitory concentrations (MICs) less than 1 microgram per millilitre against erythromycin-sensitive and erythromycin-resistant strains of Streptococcus pneumoniae and Streptococcus pyogenes.
# (§2) In addition, the MIC (μg/mL) of test compounds against various organisms was determined including:
# (§3) S. aureus Smith ATCC 13709, S. pneumoniae SP030, S. pyogenes 3565, E. faecalis ATCC 29212, H. influenzae ATCC 49247, M. catarrhalis ATCC 23246.
# S. pyogenes 3565 = settings: Streptococcus pyogenes
# Experimental: as §1, §2, §3
# H. influenzae ATCC 49247 = settings: Haemophilus influenzae, ATCC49247
# Experimental: as §1, §2, §3
# S. pneumoniae SP030 = settings: Streptococcus pneumoniae
# Experimental: as §1, §2, §3
# E. faecalis ATCC 29212 = settings: Enterococcus faecalis, ATCC29212
# Experimental: as §1, §2, §3
# [2] = tested on: S. aureus Smith ATCC 13709; settings: Staphylococcus aureus, ATCC13709
# Experimental: as §1, §2, §3
# [3] = tested on: erythromycin resistant strains of Streptococcus pyogenes
# Experimental: as §1
# [4] = tested on: erythromycin resistant strains of Streptococcus pneumoniae
# Experimental: as §1
# [5] = H. influenzae ATCC 49247, broth dilution in microtitre, read-out: MIC
Structure (SMILES),MIC [1],MIC (S. pyogenes 3565),MIC (H. influenzae ATCC 49247; [5]),MIC (S. pneumoniae SP030),MIC (E. faecalis ATCC 29212),MIC [2],MIC [3],MIC [4],MIC (H. influenzae ATCC 49247)
"CC[C@H]1OC(=O)[C@H](C)[C@@H](O[C@H]2C[C@@](C)(OC)[C@@H](OC(=O)CCOCCNc3cc4c(=O)c(C(=O)O)cn(C5CC5)c4cc3Cl)[C@H](C)O2)[C@@H](C)[C@@H](O[C@@H]2O[C@H](C)C[C@H](N(C)C)[C@H]2O)[C@](C)(O)C[C@@H](C)CN(C)[C@H](C)[C@@H](O)[C@]1(C)O [Example 18, 4″-O-{3-[2-(3-Carboxy-7-chloro-1-cyclopropyl-4-oxo-1,4-dihydro-4-quinolinylamino)ethoxy]propionyl}-azithromycin]",≤ 2 µg/mL,≤ 1 µg/mL,≤ 2 µg/mL,≤ 1 µg/mL,≤ 1 µg/mL,≤ 1 µg/mL,≤ 0.25 µg/mL,≤ 0.25 µg/mL,
"CC[C@H]1OC(=O)[C@H](C)[C@@H](O[C@H]2C[C@@](C)(OC)[C@@H](OC(=O)CCOCCOc3ccc4c(c3)c(=O)c(C(=O)O)cn4C3CC3)[C@H](C)O2)[C@H](C)[C@@H](O[C@@H]2O[C@H](C)C[C@H](N(C)C)[C@@H]2O)[C@](C)(O)C[C@@H](C)CN(C)[C@H](C)[C@@H](O)[C@]1(C)O [Example 29, 4″-O-{3-[2-(3-Carboxy-1-cyclopropyl-4-oxo-1,4-dihydro-quinolin-6-yloxy)-ethoxy]-propionyl}-azithromycin]",≤ 2 µg/mL,≤ 1 µg/mL,≤ 2 µg/mL,≤ 1 µg/mL,≤ 1 µg/mL,≤ 1 µg/mL,≤ 0.25 µg/mL,≤ 0.25 µg/mL,
"CC[C@@H]1OC(=O)[C@H](C)[C@H](O[C@@H]2C[C@](C)(OC)[C@H](OC(=O)CCNCCOc3ccc4c(=O)c(C(=O)O)cn(CC)c4c3)[C@H](C)O2)[C@@H](C)[C@H](O[C@@H]2O[C@H](C)C[C@H](N(C)C)[C@@H]2O)[C@](C)(OC)C[C@H](C)C(=O)[C@H](C)[C@@H](O)[C@]1(C)O [Example 17, 4″-O-{3-[2-(3-Carboxy-1-ethyl-4-oxo-1,4-dihydro-7-quinolinyloxy)ethylamino]propionyl}-6-O-methyl-erythromycin A]",≤ 2 µg/mL,≤ 1 µg/mL,≤ 2 µg/mL,≤ 1 µg/mL,≤ 1 µg/mL,≤ 1 µg/mL,≤ 0.25 µg/mL,≤ 0.25 µg/mL,
"CC[C@H]1OC(=O)[C@H](C)[C@@H](O[C@H]2C[C@@](C)(OC)[C@@H](OC(=O)CCOCCNc3ccc4c(c3)c(=O)c(C(=O)O)cn4C3CC3)[C@H](C)O2)[C@@H](C)[C@@H](O[C@@H]2O[C@H](C)C[C@H](N(C)C)[C@H]2O)[C@](C)(O)C[C@@H](C)CN(C)[C@H](C)[C@@H](O)[C@]1(C)O [Example 19, 4″-O-{3-[2-(3-Carboxy-1-cyclopropyl-4-oxo-1,4-dihydro-6-quinolinylamino)ethoxy]propionyl}-azithromycin]",≤ 2 µg/mL,≤ 1 µg/mL,≤ 2 µg/mL,≤ 1 µg/mL,≤ 1 µg/mL,≤ 1 µg/mL,≤ 0.25 µg/mL,≤ 0.25 µg/mL,
"CC[C@@H]1OC(=O)[C@H](C)[C@H](O[C@@H]2C[C@](C)(OC)[C@H](OC(=O)CCNCCOc3ccc4c(c3)c(=O)c(C(=O)O)cn4CC)[C@H](C)O2)[C@@H](C)[C@H](O[C@@H]2O[C@H](C)C[C@H](N(C)C)[C@@H]2O)[C@](C)(OC)C[C@H](C)C(=O)[C@H](C)[C@@H](O)[C@]1(C)O [Example 15, 4″-O-{3-[2-(3-Carboxy-1-ethyl-4-oxo-1,4-dihydro-6-quinolinyloxy)ethylamino]propionyl}-6-O-methyl-erythromycin A monoformate salt]",,,,,,,≤ 0.25 µg/mL,≤ 0.25 µg/mL,
"CC[C@@H]1OC(=O)[C@H](C)[C@H](O[C@@H]2C[C@](C)(OC)[C@H](OC(=O)CCNCCSc3cnc4c(c3)c(=O)c(C(=O)O)cn4CC)[C@H](C)O2)[C@@H](C)[C@H](O[C@@H]2O[C@H](C)C[C@H](N(C)C)[C@@H]2O)[C@@](C)(OC)C[C@H](C)C(=O)[C@H](C)[C@@H](O)[C@]1(C)O [Example 5, 4″-O-{3-[2-(3-Carboxy-1-ethyl-4-oxo-1,4-dihydro-[1,8]naphthyridin-6-ylsulfanyl)ethylamino]propionyl}-6-O-methyl-erythromycin A monoformate salt]",,≤ 1 µg/mL,,≤ 1 µg/mL,≤ 1 µg/mL,≤ 1 µg/mL,≤ 0.25 µg/mL,≤ 0.25 µg/mL,
"CC[C@@H]1OC(=O)[C@H](C)[C@H](O[C@@H]2C[C@](C)(OC)[C@H](OC(=O)CCNCCSc3ccc4c(c3)c(=O)c(C(=O)O)cn4CC)[C@H](C)O2)[C@@H](C)[C@H](O[C@@H]2O[C@H](C)C[C@H](N(C)C)[C@@H]2O)[C@](C)(O)C[C@H](C)CN(C)[C@@H](C)[C@@H]2OC(=O)O[C@@]12C [Example 11, 4″-O-{3-[2-(3-Carboxy-1-ethyl-4-oxo-1,4-dihydro-6-quinolinysulfanyl)ethylamino]propionyl}-azithromycin11,12-carbonate]",≤ 2 µg/mL,≤ 1 µg/mL,≤ 2 µg/mL,≤ 1 µg/mL,≤ 1 µg/mL,≤ 1 µg/mL,≤ 0.25 µg/mL,≤ 0.25 µg/mL,
"CC[C@H]1OC(=O)[C@H](C)[C@@H](O[C@H]2C[C@@](C)(OC)[C@@H](OC(=O)CCOCCOc3cc4c(=O)c(C(=O)OCOC(=O)C(C)(C)C)cn(C5CC5)c4cc3Cl)[C@H](C)O2)[C@H](C)[C@@H](O[C@@H]2O[C@H](C)C[C@H](N(C)C)[C@H]2O)[C@](C)(O)C[C@@H](C)CN(C)[C@H](C)[C@@H](O)[C@]1(C)O [Example 28, 4″-O-(3-{2-[7-chloro-1-cyclopropyl-3-(2,2-dimethyl-propionyloxymethoxycarbonyl)-4-oxo-1,4-dihydro-quinolin-6-yloxy]-ethoxy}-propionyl)-azithromycin]",,≤ 1 µg/mL,,≤ 1 µg/mL,≤ 1 µg/mL,≤ 1 µg/mL,≤ 0.25 µg/mL,≤ 0.25 µg/mL,
"CC[C@@H]1OC(=O)[C@H](C)[C@H](O[C@@H]2C[C@](C)(O)[C@H](OC(=O)CCNCCSc3ccc4c(c3)c(=O)c(C(=O)OC)cn4CC)[C@H](C)O2)[C@@H](C)[C@H](O[C@@H]2O[C@H](C)C[C@H](N(C)C)[C@@H]2O)[C@](C)(OC)C[C@H](C)C(=O)[C@H](C)[C@@H](O)[C@]1(C)O [Example 7, 4″-O-{3-[2-(3-Carboxyl-1-ethyl-4-oxo-1,4-dihydro-6-quinolinylsulfanyl)ethylamino]propionyl}-6-O-methyl-erythromycin A methyl ester]",,≤ 1 µg/mL,,≤ 1 µg/mL,≤ 1 µg/mL,≤ 1 µg/mL,≤ 0.25 µg/mL,≤ 0.25 µg/mL,
"CC[C@@H]1OC(=O)[C@H](C)[C@H](O[C@@H]2C[C@](C)(OC)[C@H](OC(=O)CCNCCOc3cc4c5c(c3)c(=O)c(C(=O)O)cn5CCC4)[C@H](C)O2)[C@@H](C)[C@H](O[C@@H]2O[C@H](C)C[C@H](N(C)C)[C@@H]2O)[C@](C)(OC)C[C@H](C)C(=O)[C@H](C)[C@@H](O)[C@]1(C)O [Example 13, 4′-O-{3-[2-(6-Carboxy-7-oxo-2,3-dihydro-1H,7H-pyrido[3,2,1-ij]quinolin-9-yloxy)ethylamino]propionyl}-6-O-methyl-erythromycin A bis trifluoroacetate salt]",≤ 2 µg/mL,≤ 1 µg/mL,,≤ 1 µg/mL,≤ 1 µg/mL,≤ 1 µg/mL,≤ 0.25 µg/mL,≤ 0.25 µg/mL,≤ 2 µg/mL
"CC[C@@H]1OC(=O)[C@H](C)[C@H](O[C@@H]2O[C@H](C)[C@H](OC(=O)CCNCCSc3ccc4c(c3)c(=O)c(C(=O)O)cn4CC)[C@@](C)(OC)O2)[C@@H](C)[C@H](O[C@H]2O[C@@H](C)C[C@@H](N(C)C)[C@H]2O)[C@](C)(OC)C[C@H](C)C(=O)[C@@H](C)[C@@H]2NC(=O)O[C@@]12C [Example 9, 4″-O-{3-[2-(3-Carboxy-1-ethyl-4-oxo-1,4-dihydro-quinolinylsulfanyl)ethylamino]propionyl}-6-O-methyl-11-desoxy-11-(R)amino-erythromycin A11,12-carbamate bis trifluoroacetate salt]",≤ 2 µg/mL,≤ 1 µg/mL,,≤ 1 µg/mL,≤ 1 µg/mL,≤ 1 µg/mL,≤ 0.25 µg/mL,≤ 0.25 µg/mL,≤ 2 µg/mL
"CC[C@H]1OC(=O)[C@H](C)[C@@H](O[C@H]2C[C@@](C)(OC)[C@@H](OC(=O)CCOCCOc3cc4c(=O)c(C(=O)O)cn(C5CC5)c4cc3Cl)[C@H](C)O2)[C@H](C)[C@@H](O[C@@H]2O[C@H](C)C[C@H](N(C)C)[C@H]2O)[C@](C)(O)C[C@@H](C)CN(C)[C@H](C)[C@@H](O)[C@]1(C)O [Example 27, 4″-O-{3-[2-(3-Carboxy-7-chloro-1-cyclopropyl-4-oxo-1,4-dihydro-quinolin-6-yloxy)ethoxy]-propionyl}-azithromycin]",≤ 2 µg/mL,≤ 1 µg/mL,≤ 2 µg/mL,≤ 1 µg/mL,≤ 1 µg/mL,≤ 1 µg/mL,≤ 0.25 µg/mL,≤ 0.25 µg/mL,
